Assay results reported in patent US4517002A (priority 1983, dated 1985).

Columns and labels:
urease [1] = type: biochemical; conditions: pH 5.4
urease [2] = type: biochemical; conditions: pH 7.2

Row | SMILES | % Inhibition Wisconsin Soil (urease [1]) [%] | % Inhibition Cazenovia Soil (urease [2]) [%]
1 | NP(N)(=O)OCC(F)(F)F [Experiment 1] | 90 | 97
2 | NP(N)(=O)OCC(Cl)(Cl)Cl [Experiment 2] | 87 | 97
3 | NP(N)(=O)OCCBr [Experiment 3] |  | 85
4 | NP(N)(=O)OCCCl [Experiment 4] |  | 84
5 | C=CCOP(N)(N)=O [Experiment 6] | 38 | 65
6 | NP(N)(=O)OCc1ccccc1 [Experiment 7] | 20 | 69
7 | NP(N)(=O)OCCCCl [Experiment 8] | 22 | 41
8 | COP(N)(N)=O [Experiment 9] |  | 34
9 | CCCOP(N)(N)=O [Experiment 10] |  | 15
10 | NP(N)(=O)OC1CCCCC1 [Experiment 11] |  | 85
11 | NP(N)(=O)OC1C(Cl)(Cl)CCCC1(Cl)Cl [Experiment 12] |  | 38
